One data set has as its system NIH3T3. Description: Cell viability after paraquat (CellTiter-Blue). The class given is cell-based, mouse.
The subject of a further data set is CaCo-2 cells. Description: Bidirectional permeability assay with CaCo-2 cells. The class given is in vitro ADME, human. As to conditions: in words. As to the method:
In vitro solubility in the following conditions A) HBSS/HEPES 10 mM/BSA 0.1% pH 6 B) HBSS/HEPES 10 mM/BSA 0.1% pH 7.4 C) TRIS/BSA 0.1% PBS (pH 7.4 and at indicated doses were measured by Nephelometry using the NEPHELOstar Galaxy apparatus (BMG Lab Technologies). In vitro stability in human, mouse and rat liver microsomes and permeability using a bidirectional permeability assay with CaCo-2 cells (pH 6.5/7.4) assays were performed with standard methodology and analyzed by LC-MS/MS. at SIMM-SERVIER joint Biopharmacy Laboratory. ADME properties for CA39 and CA77 were predicted by QikProp (Schrödinger, LLC, Releases 2016-2020) software.

The test system of data set [1] is rd10 mice. Description: rd10 mice, daily i.p. injection, retina histology and biochemistry. The settings on record: daily i.p. 40 mg/kg bw, P18 to P25. The class given is in vivo, mouse. As for the experimental part: (§1) C57BL/6 J mice wild-type (WT) and homozygous for the Pde6 mutation (rd10 mouse model of retinal degeneration) were obtained from The Jackson Laboratory and experiments were performed at the age indicated in each part of the study. C57BL/6 KFERQ-Dendra mice were generated by back-crossing FVB KFERQ-Dendra mice with wild-type C57BL/6 mice for 8 generations. Both male and female animals were used in this study in equally distribution groups. However, results from both sexes were pooled, because of absence of significant differences in any of the parameters analyzed after statistical analysis with a mixed model of two-way ANOVA sex and treatment as independent variables and the corresponding measure as dependent variable. All animals were housed in a barrier-controlled facility (19–23 °C 30–60% relative humidity; 12 h light/dark cycle) with ad libitum access to standard chow pellets (protein 19 gm%/carbohydrate 67 gm%/fat 4 gm%) and water. For animal administration of CA compounds, a formula containing 30% PEG 400 (Sigma, #8.0745), 65% of 5% glucose solution, 5% Tween 80 (Sigma, #P1754) was used to dissolve them. CA compounds were prepared freshly by adding 5% DMSO and sonicating for 1 h. Treatment of KFERQ-Dendra mice with the CA compounds was done at 4 months of age by i.p. daily injection of 30 mg/kg bw or vehicle for three consecutive days and tissues collected 6 h after the last injection. In the case of rd10 mice, animals were daily injected from P18 to P25 with CA77 (40 mg/kg bw). In the case of intravitreal administration, a single intravitreal injection was applied at P18 with CA77 (40 µM) in DMSO/PBS and the contralateral eye was injected with PBS and DMSO at same concentration. At P26, mice were sacrificed and eyes fixed overnight with 4% PFA (Sigma, #P6148) in PBS at 4 °C for immunofluorescence or retinas dissected and immediately frozen for biochemistry. Distribution of animals in the vehicle or treatment group was done randomly. ICR (CD-1) outbred 3 months old male mice from ENVIGO were used for the pharmacokinetic studies (see pharmacokinetic section for housing and handling details). All animal studies and procedures complied with ethical regulations, were performed in accordance with the European Union guidelines and the ARVO Statement for the Use of Animals in Ophthalmic and Vision Research and were approved by the Institutional Animal Care and Use Committee at the Albert Einstein College of Medicine, the CSIC Bioetica Comite and approved by the Comunidad de Madrid, PROEX232/17.
(§2) 12 μm cryosections and immunofluorescence in retinal sections[10] after orienting retinas with a dorsal mark, so comparisons were performed taking into account the precise retinal area. Primary antibodies used in this study were visual (rod) arrestin, cone arrestin, Opsin R/G, transducin, GFAP, N-CoR1. Sections were visualized by confocal microscopy (TCS SP5; Leica Microsystems).
(§3) For ONL thickness quantification, DAPI images were taken at 40X in a fluorescence microscope Multidimensional system Leica AF6000 LX coupled to DMI600B microscope and Hamamatsu CCD 9100-O2 camera. At least two sections per animal were analyzed, preferably central sections. Eight images per retina equally distributed along the retina were acquired. Three measures were taken per image and ratio ONL/INL quantified with ImageJ tools. Leica LAS-X (3.7.4.23463) was used for image acquisition and ImageJ (v.2.1.0) was used for image processing. For OS length measures, fixed positions common to all pictures were considered and OS length was measured using ImageJ straight line tool.
RNA was extracted from individual retinas or tissue sections (brain, liver). Total RNA from retinas was extracted using TRIzol Reagent (Invitrogen, # 15596-018), and reverse transcription was performed using the High-Capacity cDNA Reverse Transcription Kit (Applied Biosystems, # 4374966) according to the manufacturer’s instructions. […]

For data set [2], the system named is rd10 mice. Description: rd10 mice, single intravitreal injection, retina histology. The class given is in vivo, mouse. As to the method: as §1, §2, §3
Eyes were enucleated, put in a plate with cold PBS and an incision was made under the microscope to let the fixative enter into the eye. […]

The subject of data set [3] is retinal explants of rd10 mice. The data set is described as follows: Ex-vivo retinal cultures of rd10 mice. More on the design: species or system mouse. As to conditions: rd10 P21 to P24; 40 μM for 72 h; vs contralateral untreated explant. As to the method:
After removal of the eyes, all non-relevant tissue was removed from the neuroretina, which was then placed, photoreceptors upside down, in Millicell support inserts (Millipore, #PICM0RG50) and maintained in DMEM with 1 μM insulin (SIGMA, #I2643) for 72 h at 37 °C in a 5% CO2 atmosphere. Where indicated, retinas were incubated with 40 μM CA77 for the indicated times. The retinas were then washed twice with phosphate-buffered saline (PBS), fixed overnight in 4% paraformaldehyde (w/v) in 0.1 M phosphate buffer (pH 7.4) and processed. Retinas were separated along dorsoventral axis and nasal half was used for whole-mounts and temporal half was used for 12 µm cryosections.
Immunostainings were performed overnight at 4 °C using antibodies against visual (rod) arrestin and cone arrestin after initial permeabilization with 2% Triton X-100 for 1 h at RT and subsequent incubation with blocking solution (10% normal goat serum, 0.25% Triton X-100 in PBS). The retinas were then washed and incubated for 1 h with Alexa 568 or 647 (Invitrogen, #A-11004, #A32728), counterstained with DAPI (1 µg/mL, Sigma, # D9542), mounted in Fluoromount-G (Cultek, #100-01), and visualized by confocal microscopy in an SP5 confocal microscope (TCS SP5; Leica Microsystems). […]

[4] abbreviates: rd10 mice, 7 days after a single intravitreal injection (40 µM) at P18.
[5] abbreviates: rd10 mice, individual values and Mean CA77.

Each structure is given as a SMILES string. Where “and” joins values, the source holds several entries; their conditions need not be identical. Equal values may be shown once.

`Clc1ccc2c(c1)OCC(c1ccc(-c3ccccc3)cc1)=N2` [CA39]: the “protection against paraquat, compound added after the insult” value in the data set with NIH3T3 (2 μM or 10 μM, compared with AR7) is “significantly higher protection than AR7”. Besides, the “cell death by paraquat, compound administered before the insult” value with NIH3T3 (12 h treatment with 2 μM or 10 μM before PQ) is listed as “reduced cell death”.
With `CC(=O)Nc1ccc(C2=Nc3ccc(Cl)cc3OC2)cc1` [CA77], in the data set with CaCo-2 cells, the membrane permeability result was “highly membrane permeable”. Further, the “expression levels of NCOR1” value in the data set on rd10 mice [1] (WT and rd10 mice) is given as “did not change the expression levels of NCOR1”. In addition, in the data set on rd10 mice [1] (rd10 mice), the “mRNA levels of photoreceptor-specific proteins (rhodopsin)” value is reported as “Higher mRNA levels of photoreceptor-specific proteins”, the “outer nuclear layer (ONL) thickness” value is on record as “significantly thicker outer nuclear layers”, the “retinal GFAP levels” value was “strikingly lower levels of GFAP” and the “retinal L2A levels by immunoblot” value is reported as “significantly increasing retinal levels of the limiting CMA component”. Besides, the “length of the outer segments of photoreceptors” value with rd10 mice [1] (rd10 mice, vs vehicle) is “increased length of the outer segments of photoreceptors”. In addition, in the data set on rd10 mice [2] (Fig. S9c, individual animals), the ONL/INL is 0.8086 and 0.8292 and 0.9847. Besides, in the data set with rd10 mice [2] (Fig. S9c, mean, veh 0.676), the “ONL/INL, mean” value is 0.8578. For the same compound, the “%functional cones” value in the data set with rd10 mice [2] (Fig. S9d, individual animals) was 28.972% and 50% and 24.2991% and 28.7037% and 13.3929% and 16.5289% and 21.8182%. Besides, the “%functional cones, mean” value in the data set on rd10 mice [2] (Fig. S9d, mean, veh 10.94) worked out at 26.24%. In addition, in the data set on rd10 mice [2] (setting [4]), the gliosis entry is recorded as “significatively improved” and the “retinal ONL/INL ratio” value is listed as “thicker retinal ONL/INL ratio”. In the data set with rd10 mice [2] (setting [5]), the “Fig. 7a, retinal measurement by eccentricity, eccentricity 1” value worked out at 0.3526; the “Fig. 7a, retinal measurement by eccentricity, eccentricity 2” value came out at 0.3984; the “Fig. 7a, retinal measurement by eccentricity, eccentricity 3” value is recorded as 0.5851; the “Fig. 7a, retinal measurement by eccentricity, eccentricity 4” value was found to be 0.8477. In the data set with rd10 mice [2] (setting [5]), the “Fig. 7a, retinal measurement by eccentricity, eccentricity -1” value is reported as 0.3423; the “Fig. 7a, retinal measurement by eccentricity, eccentricity -2” value was determined as 0.3489; the “Fig. 7a, retinal measurement by eccentricity, eccentricity -3” value is listed as 0.5902. Also, in data set [3], the “cones (cone arrestin-positive) in retinal explants” value is given as “higher preservation for cones” and the “number of rods (rod arrestin-positive) in retinal explants” value is listed as “significant preservation of the number of rods”.

Values taken from PMC9304322, “Targeting retinoic acid receptor alpha-corepressor interaction activates chaperone-mediated autophagy and protects against retinal degeneration” (Nature Communications, 2022).
